Assay results reported in patent US20220016154A1, “TREATMENT OF NEURONAL MOSAICISM IN DEMENTIA” (Crownview Medical Group, Inc., priority 2020, published 2022).

Columns and labels:
HIV-associated dementia = conditions: HIV patients, antiretroviral therapy; cited from earlier work
[1] = system: patient with advanced dementia; experiment: Case report: dementia patient administered a regimen of ZDV (Retrovir), clinical observation and SMMSE; format: in vivo, human; conditions: one patient, SMMSE 2 to 4 before treatment; after 8 weeks of treatment

For `Cc1cn([C@H]2C[C@H](N=[N+]=[N-])[C@@H](CO)O2)c(=O)[nH]c1=O` [Zidovudine], the “progression of HIV-associated dementia” value (HIV-associated dementia) is listed as “slowed”, the SMMSE scores [1] is listed as “not consistently improved” and the “ability to remember and communicate about where they lived” value [1] is listed as “specific improvements in their ability to remember and communicate about where they lived”. For the same compound, the “alertness and awareness of surroundings” value [1] was “more alert and aware of their surroundings”.
